The source of these data is patent publication US9504702B2, “Methods of inhibition of protein fucosylation in vivo using fucose analogs” (Seattle Genetics, Inc., priority 2010, dated 2016).

The test system of test [1] is antibody core fucosylation (antibodies that did not bind to KLH, recovered from protein A column). The class given is in vivo. To be noted: 100 mM in drinking water for 14 days; non-KLH antibodies; dot blot; untreated 81%. As for the experimental part:
Female BALB/c mice were immunized with Keyhole Limpet Hemocyanin (KLH) 30-60 days prior to starting this study. For the first study, mice were dosed ip with 150 mg/kg of alkynyl fucose (SGD-1887), alkynyl fucose peracetate (SGD-1890), 2-fluorofucose (SGD-2083), or 2-fluorofucose triacetate (SGD-2084) daily for 7 days or were untreated. On day 2, mice were also boosted with KLH. On the day after the last ip dose, mice were terminally bled and serum obtained. For the second study, mice were given 100 mM of 2-fluorofucose (SGD-2083) in their drinking water or given untreated water for 7 days, boosted with KLH, and continued with 100 mM 2-fluorofucose containing drinking water or untreated water for 7 more days before being terminally bled. Serum was then obtained. No mice died in either study. For both studies, serum was passed over a commercial anti-KLH affinity column to obtain KLH-specific polyclonal antibodies. […]
Dot blots: 0.5 μg each of antibodies from untreated and treated animals, as well as standards of antibody cAC10 having known amounts of core fucosylation (0 to 100% fucose), were blotted onto a nitrocellulose membrane. […] Gel loading (visible) and fucose signals (bioluminescence) were measured with an Alpha Innotech camera and quantitated with the machine software.

A further test deals with PC-3. The experiment in a line: Xenograft of pre-treated PC-3 cells (Example 7, Study 2). The class given is in vivo, female nude mice. To be noted: 20 mM in drinking water. The procedure:
To further evaluate the activity of these fucose analogs, further studies were performed in vivo using tumor cells that had been pre-treated by culturing in the presence of a fucose analog, or using untreated tumor cells. Tumor cells were implanted into 10 mice per group as follows. For the LS174T, PC-3, and Caki-1 cell lines, 5×10^5 cells in 25% Matrigel were implanted subcutaneously into female nude mice. For HL-60 and Ramos cell lines, 5×10^6 cells were implanted subcutaneously into female SCID mice. For mice implanted with untreated tumor cells, mice were provided regular drinking water. For mice implanted with tumor cells pre-treated with 2-fluorofucose (SGD-2083), the mice were provided drinking water supplemented with 20 mM 2-fluorofucose (SGD-2083). For mice implanted with tumor cells pre-treated with alkylnyl fucose (SGD-1887), the mice were provided with regular drinking water.
After 3 weeks of receiving 2-fluorofucose-containing drinking water, mice were returned to regular drinking water, except for mice with Caki-1 tumors. The latter mice were returned to regular drinking water for one week. After the week of receiving regular water, mice were randomized to two groups of 5 each to receive drinking water supplemented with 20 mM 2-fluorofucose or regular drinking water. Mice were sacrificed when tumors reached about 1000 mm^3.

As for `C[C@H](O)[C@@H](O)[C@@H](O)[C@H](F)C=O` [SGD-2083, 2-fluoro-2-deoxy fucose], the “fucosylation levels (average, treated animals)” value in test [1] was determined as 7%. In addition, the tumor growth entry with PC-3 is “tumor growth inhibition in vivo was seen”.
